Laboratory results from US7491383B2, “Compositions having enhanced pharmacokinetic characteristics” (Allergan, Inc., priority 2001, dated 2009).
Where two headings read alike, the source gives them in different places.

Legend:
Intra Ocular Pressure = details: 0.131% Brimonidine and 0.126% linoleic acid
Text: The treatment is an ion pair formulation of 0.131% Brimonidine and 0.126% linoleic acid.

[1] = test system: Rabbit Intraocular Pressure; details: 20 μL of 0.2% on cornea, mean ± S.E.M., n = 8
Text: In this study, the animals were placed into three groups consisting of a mix of age, size and sex.
One group of animals (both sexes) were used per screening study.
The following general procedure for administering the test compound employed in this study is presented below: • 1. Make sure that the 0.25% proparacaine Opthetic® mixture (topical local anesthetic), test compounds, and commercially available treats are available. • 2. Turn on the Digilab Modular One™ Pneuma Tonometer (pneumatonometer) [BioRad, Cambridge, Mass.]; it needs approximately 15 minutes to warm up. Turn on gas supply or air pump. • 3. Hold probe vertically with the point tip down and press “calibration check” for “zero”. • 4. Wipe the pneumatonometer probe with an alcohol swab, and inspect the tip membrane for holes. • 5. Set the external calibration device (air or water manometer) to 25 mm Hg, place the pneumatonometer probe in the calibration device to an ensure that it corresponded to 25±2 mm Hg. • 6. Obtain a rabbit. Make sure the recording data sheets are at hand. • 7. Gently restrain the rabbit via a commercial restrainer or a cotton towel. Measure the pupil diameter with the specialized ruler for each eye and record the values on the sheets provided. If the eyes are too dark to obtain a value by this method, a specialized penlight may be used. Obtain a pupil diameter measurement by shining the penlight on the cornea for one second. • 8. Slide the upper eyelid up the thumb and visually assess and score the degree of ocular surface redness. Record the value for each eye on the sheet provided. • 9. Put one drop of 0.25% proparacaine Opthetic® (50:50 mix of 0.5% proparacaine Opthetic®+Cellufresh®) on the surface of each eye. Wait one or more minutes for ophthetic to take effect. • 10. Place the pnematonometer tip on one eye at the site where the curvature of the cornea is greatest. Let the probe shank travel to the black line, not the red line. Persist until a stable reading with the standard deviation below 1.0 is obtained. Repeat the procedure for the contralateral eye. Record the data. (Note: If the animal is upset by the restraint, the reading will be artificially high and cannot be used. Use gentle restraint). • 11. At the end of the 0, 6, 24, 30, 48, 54, 72, 78 and 96 hour measurements, use an automatic pipette to apply 20 μL of the test compound to the surface of the cornea of one eye. After the 102 hour measurements, the eyes will be washed out with Refresh® and Prefrin®. • 12. Give the animal a treat and return the animal to its cage. • 13. Repeat steps 7 to 11 on the remaining animals in the group.
The following general procedure for measuring the effects of the test compound employed in this study is as follows: a reading is conducted at 0, 2, 4, 6, 24, 26, 28, 30, 48, 50, 52, 54, 72, 74, 76, 78, 96, 98, 100, and 102 hours. The pneumatonometer is calibrated before use with a manometer and the probe tip is wiped with an alcohol swab. One drop of 0.25% proparacaine Opthetic®, a corneal anesthetic, is placed on the cornea. Allow sufficient time (approximately 1 minute) for it to anesthetize the cornea before placing the probe on the eye. The eye is gently opened by the person doing the tonometer reading. The probe is placed on the cornea at the point of greatest curvature and a stable reading is obtained. The probe is held parallel to the floor and perpendicular to the line of the rabbit's sight. The reading is repeated until a reasonable reading can be obtained. The piston should be between the red and black lines or at the black line on the probe.

monkeys (sedation) = test system: monkeys (sedation)
Protocol: This study involved cross overs and a one-week wash out in between the administration of the various compounds.
As done in a previous experiments, the following method was followed: • 1. 6 trained monkeys were placed in chairs and allowed to acclimate for approximately 30 minutes. • 2. Individual monkeys were brought into the “testing room” where they were allowed to adjust to the new environment for approximately 2 minutes. […] Sedation scores were recorded on an observation sheet. • 3. The monkey were returned to the group of animals assigned to this study. • 4. 2 baseline readings were done at T-0.5 and 0 hour. After the 0 hour reading one drop of the test compound was administered to the right eye. • 5. Steps 2 & 3 were repeated at T=0.5, 1, 2, 3 and 4 hour. • 6. Animals were monitored until they recover from effects of the drug. • 7. […] Test Compound Administration:
The scoring was conducted for each animal for the different test compounds. The average results are shown on table 1.

Brc1c(NC2=NCCN2)ccc2nccnc12.CCCCCC=CCC=CCCCCCCCC(=O)O [Brimonidine-linoleic acid]
percent change with time of Intra Ocular Pressure (Intra Ocular Pressure; 0 hr (administration of complex)): 0.0 mm Hg | percent change with time of Intra Ocular Pressure (Intra Ocular Pressure; 1 hr after administration): −10.4 mm Hg | percent change with time of Intra Ocular Pressure (Intra Ocular Pressure; 2 hr after administration): −16.0 mm Hg | percent change with time of Intra Ocular Pressure (Intra Ocular Pressure; 4 hr after administration): −9.5 mm Hg | percent change with time of Intra Ocular Pressure (Intra Ocular Pressure; 6 hr after administration): −9.4 mm Hg | INTRAOCULAR PRESSURE ([1]; time 0 hr (reading before first dose)): 25.8 ± 1.2 mm Hg | INTRAOCULAR PRESSURE ([1]; time 2 hr): 17.1 ± 1.0 mm Hg | INTRAOCULAR PRESSURE ([1]; time 4 hr): 21.1 ± 1.0 mm Hg | INTRAOCULAR PRESSURE ([1]; time 6 hr (dosed again after reading)): 23.9 ± 1.0 mm Hg | INTRAOCULAR PRESSURE ([1]; time 24 hr (dosed after reading)): 25.6 ± 0.5 mm Hg | INTRAOCULAR PRESSURE ([1]; time 26 hr): 19.9 ± 0.6 mm Hg | INTRAOCULAR PRESSURE ([1]; time 28 hr): 22.9 ± 0.8 mm Hg | INTRAOCULAR PRESSURE ([1]; time 30 hr (dosed after reading)): 23.0 ± 1.1 mm Hg | INTRAOCULAR PRESSURE ([1]; time 48 hr (dosed after reading)): 26.5 ± 1.0 mm Hg | INTRAOCULAR PRESSURE ([1]; time 50 hr): 20.4 ± 0.6 mm Hg | INTRAOCULAR PRESSURE ([1]; time 52 hr): 23.4 ± 0.7 mm Hg | INTRAOCULAR PRESSURE ([1]; time 54 hr (dosed after reading)): 24.1 ± 0.8 mm Hg | INTRAOCULAR PRESSURE ([1]; time 72 hr (dosed after reading)): 26.8 ± 0.9 mm Hg | INTRAOCULAR PRESSURE ([1]; time 74 hr): 21.1 ± 0.8 mm Hg | INTRAOCULAR PRESSURE ([1]; time 76 hr): 23.9 ± 1.1 mm Hg | INTRAOCULAR PRESSURE ([1]; time 78 hr (dosed after reading)): 25.2 ± 0.9 mm Hg | INTRAOCULAR PRESSURE ([1]; time 96 hr (dosed after reading)): 27.9 ± 1.1 mm Hg | INTRAOCULAR PRESSURE ([1]; time 98 hr): 20.1 ± 1.3 mm Hg | INTRAOCULAR PRESSURE ([1]; time 100 hr): 23.9 ± 0.7 mm Hg | INTRAOCULAR PRESSURE ([1]; time 102 hr): 25.3 ± 1.6 mm Hg

tartrate of 5-bromo-6-(2-imidozolin-2-ylamino) quinoxaline [Brimonidine Tartrate, reference compound]
sedation compared with the other test compounds (in words) (monkeys (sedation); 0.2%, one drop right eye): more sedation than dosing with Brimonidine-linoleic acid | SEDATION SCORE (average, scale S=0 to S=4) (monkeys (sedation); 0.2%, one drop right eye, time 0 hr (baseline, before dosing)): 0.8 | SEDATION SCORE (average, scale S=0 to S=4) (monkeys (sedation); 0.2%, one drop right eye, time 0.5 hr): 0.8 | SEDATION SCORE (average, scale S=0 to S=4) (monkeys (sedation); 0.2%, one drop right eye, time 1 hr): 1.7 | SEDATION SCORE (average, scale S=0 to S=4) (monkeys (sedation); 0.2%, one drop right eye, time 2 hr): 2.6 | SEDATION SCORE (average, scale S=0 to S=4) (monkeys (sedation); 0.2%, one drop right eye, time 3 hr): 2.5 | SEDATION SCORE (average, scale S=0 to S=4) (monkeys (sedation); 0.2%, one drop right eye, time 4 hr): 2.7 | SEDATION SCORE (average, scale S=0 to S=4) (monkeys (sedation); 0.2%, one drop right eye, time −0.5 hr (baseline)): 0.7 | observed state of the monkeys on average (monkeys (sedation); usually from the 2-hour time point to the end of observations): sleepy and inactive with heavy eyes
